According to patent US12576081B2 (MEZZION PHARMA CO., LTD., priority 2019, dated 2026):
Values joined by “and” are separate entries in the source; they are usually repeats but may differ in a detail not shown here. Identical values can stand only once.

Assays:
[1] = system: adolescents with Fontan physiology; details: cited from earlier work
[2] = system: adolescents with SVHD who had undergone Fontan palliation; assay: FUEL trial, resting data; assay type: in vivo, human
Method: (§1) The FUEL Trial was conducted at 30 centers around the world. […] (Funded by Mezzion Pharma Co. Ltd., and conducted by the National Heart, Lung, and Blood Institute-funded Pediatric Heart Network; ClinicalTrials.gov number NCT02741115).
(§2) The primary outcome was the change in oxygen consumption at peak exercise (max or peak VO2) from baseline to the 26-week visit. Secondary exercise outcomes included change in additional measures at maximal exertion, as well as change in measures of submaximal exercise at the ventilatory anaerobic threshold (VAT). The primary outcome for clinical secondary aims included change in myocardial performance index (MPI), an echocardiographically-derived measure of systolic and diastolic ventricular function, change in log-transformed reactive hyperemia index (lnRHI), a PAT-derived measure of peripheral vascular function, and change in log-transformed serum BNP level. Safety was monitored through adverse event reports, which were collected according to a pre-specified protocol of study coordinator outreach, and through ad hoc patient and family communication with members of the study team at each site.
Individuals between the ages of 12 and 18 years (inclusive) who had undergone the Fontan procedure, who were not receiving treatment with a PDE5 inhibitor, who were ≥40 kg, and who met the minimum height requirement for cycle ergometry (≥132 cm) were eligible for enrollment.
Randomization assignments were generated by a web-based algorithm after confirmation of trial eligibility and consent.
(§3) Baseline clinical testing completed before drug initiation included a blood draw to measure brain-type natriuretic peptide (BNP) level, a cardiopulmonary exercise test (CPET) using a standardized cycle ergometer ramp protocol, a standardized echocardiogram, and an assessment of peripheral vascular function using peripheral arterial tonometry (PAT) measured by finger cuff (EndoPAT; Itamar Medical, Israel). Participants who achieved maximal effort, defined as respiratory exchange ratio (RER)≥1.10 at peak exercise during CPET, were eligible for randomization and study drug initiation. […] End-of-study clinical testing included repeat measurement of serum BNP, CPET, echocardiogram, and PAT.
A sample size of 200 participants per arm was chosen to allow for 90% power to detect a mean treatment difference in change from baseline to 26-week testing in max VO2 of 10% with a type 1 error of 0.05. The following assumption were made: a baseline standard deviation of 7.235 ml/kg/min, a correlation between max VO2 measurements of 0.33, a drop-out and incomplete testing rate of 10%, and failure to reach maximal effort at the 26-week exercise testing in 15% of participants. These assumptions were based on historical data and reflect a conservative approach to assessing within-participant correlations and failure to reach maximal effort. The primary analysis used the intention-to-treat population to evaluate the difference in the change in the primary outcome between treatment arms. This difference was assessed with an analysis of covariance (ANCOVA) with fixed factors for ventricular morphology (single left versus single right or mixed) and treatment group, with a continuous covariate of baseline max VO2. For those without data at the 26-week visit, this value was imputed as equal to the baseline value (no change). […] Secondary outcomes of continuous data points were analyzed in the manner described for the primary outcome. […]

[3] = system: adolescents with SVHD who had undergone Fontan palliation; assay: FUEL trial, safety and tolerability (adverse event reports); assay type: in vivo, human
Text: as §2
The primary outcome for clinical secondary aims included the between group differences in change in myocardial performance index (MPI), an echocardiographically-derived measure of systolic and diastolic ventricular function, change in log-transformed reactive hyperemia index (lnRHI), a PAT-derived measure of peripheral vascular function, and change in log-transformed serum BNP level. Measurements for each of these secondary outcomes were performed at core labs. Safety was monitored through adverse event reports, which were collected according to a pre-specified protocol of study coordinator outreach, and through adhoc patient and family communication with members of the study team at each site.
A sample size of 200 participants per arm was chosen to allow for 90% power to detect a mean treatment difference in change from baseline to 26-week testing in peak VO2 of 10% with a type 1 error of 0.05. We assumed a baseline standard deviation of 7.235 ml/kg/min, a correlation between peak VO2 measurements of 0.33, a drop-out and incomplete testing rate of 10%, and failure to reach maximal effort at the 26-week exercise testing in 15% of participants. These assumptions were based on historical data and reflect a conservative approach to assessing within-participant correlations and failure to reach maximal effort and the analysis was performed using a two-sample, independent means t-test. The primary analysis used the intention-to-treat population to evaluate the difference in the change in the primary outcome between treatment arms. This difference was assessed with an analysis of covariance (ANCOVA) with fixed factors for ventricular morphology (single left versus single right or mixed) and treatment group, with a continuous covariate of baseline peak VO2. For those without data at the 26-week visit, this value was imputed as equal to the baseline value (no change). The alpha level was set at 0.05 with two-sided testing. All statistical analyses were performed using SAS statistical software 9.4 (SAS Institute, Inc., Cary, North Carolina). Secondary analyses included participants who successfully completed the protocol with measurable values at each of the secondary endpoints. Secondary outcomes of continuous data points were analyzed in the manner described for the primary outcome. In order to assess the generalizability of findings at the ventilatory anaerobic threshold, demographic and clinical characteristics were compared between participants without paired VO2 at VAT data and those comprising the remainder of the cohort using the Student's t-test and Fisher's exact test. Fisher's exact test was used to compare adverse events between the udenafil and placebo cohorts.

[4] = system: adolescents with SVHD who had undergone Fontan palliation; assay: FUEL trial, cardiopulmonary exercise test (cycle ergometer ramp protocol), peak exercise and ventilatory anaerobic threshold; assay type: in vivo, human
Method: as §1, §2, §3
A sample size of 200 participants per arm was chosen to allow for 90% power to detect a mean treatment difference in change from baseline to 26-week testing in max VO2 of 10% with a type 1 error of 0.05. The following assumption were made: a baseline standard deviation of 7.235 ml/kg/min, a correlation between max VO2 measurements of 0.33, a drop-out and incomplete testing rate of 10%, and failure to reach maximal effort at the 26-week exercise testing in 15% of participants. These assumptions were based on historical data and reflect a conservative approach to assessing within-participant correlations and failure to reach maximal effort. The primary analysis used the intention-to-treat population to evaluate the difference in the change in the primary outcome between treatment arms. This difference was assessed with an analysis of covariance (ANCOVA) with fixed factors for ventricular morphology (single left versus single right or mixed) and treatment group, with a continuous covariate of baseline max VO2. For those without data at the 26-week visit, this value was imputed as equal to the baseline value (no change). Secondary analyses included participants who successfully completed the protocol with measurable values at each of the secondary endpoints. Secondary outcomes of continuous data points were analyzed in the manner described for the primary outcome. In order to assess the generalizability of findings at the ventilatory anaerobic threshold, demographic and clinical characteristics were compared between participants without paired VO2 at VAT data and those comprising the remainder of the cohort.
The FUEL Trial was a Phase III clinical trial conducted at 30 centers. […] The primary outcome was the between group difference in change in oxygen consumption at peak exercise. Secondary outcomes included between group differences in changes in sub-maximal exercise at the ventilatory anaerobic threshold (VAT), the myocardial performance index (MPI), the natural log of the reactive hyperemia index (lnRHI), and serum brain-type natriuretic peptide (BNP). […]

[5] = system: adolescents with SVHD who had undergone Fontan palliation; assay: FUEL trial, echocardiographic myocardial performance index (blood pool Doppler); assay type: in vivo, human; details: for MPI difference, Week 26 − Baseline, mean (SD): paired data, decrease shows improvement, p 0.028 vs placebo
Text: Generally speaking, MPI (also referred to as the Doppler-derived index or Tei Index) is a measure of ventricular systolic and diastolic function as determined by a focused echocardiogram. It combines systolic and diastolic time intervals to assess heart function. More specifically, MPI can be used to assess ventricular performance represented by a numeric value using cardiac time intervals. This numeric value equals the sum of isovolumetric contraction time (ICT) and isovolumetric relaxation time (IRT) divided by ejection time (ET) and can be determined for either the left or right ventricle. Pellett, A. A., et al.: The Tei Index: Methodology and Disease. State Values. Echocardiography. A Jrnl. of CV Ultrasound & Allied Tech. 21(7):669-672 (2004); and Ulugay, A., Tatli E.: Myocardial performance index. Anadolu Kardiyol Derg 8(2):143-8 (April, 2008), both of which are incorporated herein by reference in their entireties. In the FUEL Trial, the MPI measured the performance of the single functioning ventricle. Thus, the MPI results from the FUEL Trial were determined by velocities obtained from blood pool Doppler assessment of the inflow and outflow tract of the functioning single ventricle. In other words, the FUEL Trial MPI was determined by measuring the cardiac time intervals using pulsed-wave Doppler velocity spectra of the ventricular inflow and outflow of the single functioning ventricle.
Echocardiograms were performed by sonographers with specific training for this protocol. The primary outcome of interest was MPI using Doppler-based measures of inflow and outflow duration. The duration of inflow into the dominant ventricle and outflow across the dominant semilunar valve were measured and used to calculate MPI using the standard formula. Tei C, Ling L H, Hodge D O, et al.: New index of combined systolic and diastolic myocardial performance: a simple and reproducible measure of cardiac—a study in normals and dilated cardiomyopathy. J Cardiol, 26(6):357-66 (1995); and Pellet A A et al.: The Tei Index Methodology and Disease State Values. Echocardiography: A Jrnl Of CV Ultrasound & Allied Tech, 21(7):669-672 (2004) Additional tissue Doppler images were obtained and used to calculate the tissue Doppler based MPI as previously described. Harada K, Tamura M, Toyono M et al.: Comparison of the right ventricular Tei index by tissue Doppler imaging to that obtained by pulsed Doppler in children without heart disease. Am J Cardiol, 90(5):566-9 (2002). Whenever possible, three measurements were made and the mean duration was used for the calculation.
as §2
Baseline clinical testing completed before drug initiation included a blood draw to measure brain-type natriuretic peptide (BNP) level, a cardiopulmonary exercise test (CPET) using a standardized cycle ergometer ramp protocol, a standardized echocardiogram, and an assessment of peripheral vascular function using peripheral arterial tonometry (PAT) measured by finger cuff (EndoPAT; Itamar Medical, Israel). […]

[6] = 87.5 mg twice daily, baseline to week 26
[7] = baseline before drug, mean ± SD (n)

CCCOc1ccc(S(=O)(=O)NCCC2CCCN2C)cc1-c1nc2c(CCC)nn(C)c2c(=O)[nH]1 (centres unmarked) [Udenafil, udenafil]
Average serum concentration ([1]; 87.5 mg twice daily compared with other tested regimens): highest average serum concentration
Dose-limiting adverse events ([1]; 87.5 mg twice daily): not associated with dose-limiting adverse events
Tolerability ([1]; all tested dosing regimens): tolerability at all tested dosing regimens
Resting oxygen saturation, change ([2]; 87.5 mg twice daily, baseline to week 26, mean ± SD (n), p 0.002 vs placebo): 0.5%
Resting diastolic blood pressure, change ([2]; 87.5 mg twice daily, baseline to week 26, mean ± SD (n), p 0.003 vs placebo): −2.9 mmHg
Resting diastolic blood pressure, change vs placebo (in words) ([2]; baseline to 26-week testing): small but statistically significant decrease
Resting heart rate, respiratory rate, or systolic blood pressure, change vs placebo (in words) ([2]; baseline to 26-week testing): no difference
Resting oxygen saturation, change vs placebo (in words) ([2]; baseline to 26-week testing): small but statistically significant increase
Participants who experienced a serious adverse event ([3]; human, in vivo, 26 weeks): 14
Serious adverse events with possible, probable, or definite relationship to study drug ([3]; human, in vivo, 26 weeks): 3 events
Adverse events more common than in the placebo group ([3]; in vivo): Headache, facial flushing, abdominal pain, epistaxis, and erection (male participants) were more common
Priapism ([3]; in vivo): no reported episodes of priapism
Serious adverse events related to study drug, kind ([3]; in vivo): unilateral retinal artery and vein thrombosis, transient lower extremity diplegia, and transient dyspnea
Non-serious adverse event: increased erection, participants ([3]; male, human, in vivo, 26 weeks): 13 (11.7) n (%)
Deaths ([3]; study cohort, 26 weeks): no deaths
Peak VO2 (VO2 max), increase in percent [4, 6]: 2.8%
VE/VCO2 at VAT, decrease in percent [4, 6]: 2.1%
Work rate at VAT, improvement in percent [4, 6]: 5.5% and 5.2%
VO2 at VAT, improvement in percent ([4]; 87.5 mg twice daily, baseline to week 26, paired data): 3.2%
Anaerobic threshold oxygen consumption (VO2 at VAT), change ([4]; 87.5 mg twice daily, baseline to week 26, paired data, mean ± SD (n), p 0.023 vs placebo (p=0.012)): 30 mL/min and 33 ± 185 mL/min and 29.7 mL/min
Peak exercise heart rate, baseline [4, 7]: 165 ± 20 (200) bpm
Peak exercise minute ventilation, baseline [4, 7]: 71 ± 21 (199) L/min
Peak exercise respiratory rate, baseline [4, 7]: 51 ± 11 (199) breaths/min
Peak exercise work rate, baseline [4, 7]: 120 ± 32 (198) W
MPI, max of the difference Week 26 − Baseline ([5]; 87.5 mg twice daily): 0.2
MPI, median (interquartile range) of the difference Week 26 − Baseline ([5]; 87.5 mg twice daily): −0.01 (−0.11, 0.05)
MPI, min of the difference Week 26 − Baseline ([5]; 87.5 mg twice daily): −.3
MPI difference, Week 26 − Baseline, mean (SD) ([5]; 87.5 mg twice daily): 122: −0.02 (0.113)
MPI difference, Week 26 − Baseline, mean (SD) ([5]; 87.5 mg twice daily, listed as udenafil): −0.02
MPI, LS mean dif A − B (SE), baseline ([5]; udenafil minus placebo, baseline, p 0.818): −0.0 (0.018)
MPI, LS mean dif A − B (SE), Week 26 ([5]; udenafil minus placebo, week 26, p 0.024): −0.04 (0.018)
MPI, LS mean dif A − B (SE), difference Week 26 − Baseline ([5]; udenafil minus placebo, p 0.028): −0.03 (0.014)
